What was measured:
Type in all cases: in vivo, human
[1] = test system: metastatic or surgically unresectable urothelial cancer harboring select FGFR genetic alterations; experiment: Phase 2 study NCT02365597: overall survival (Kaplan-Meier)
Method: The term “overall survival” is defined as the time from first dose to the date of death. Data for patients who are alive or have unknown status is censored at the last date on which the patient is known to be alive.
Patients were contacted every 12 weeks for survival assessment.
The study was designed to enroll 180 patients with specified FGFR alterations. Of these, ≥88 were required in the selected regimen. […] Responses were assessed by investigators and an independent radiological review committee. Progression-free survival and overall survival were estimated using Kaplan-Meier product limit method. Data from patients who were progression free and alive or with unknown status were censored at last tumor assessment. Efficacy end points were analysed at primary analysis cut-off.

[2] = Effect of food on pharmacokinetics in healthy subjects; details: high-fat and high-calorie meal
serum phosphate = experiment: Pharmacodynamics: serum phosphate; details: consequence of FGFR inhibition
Excerpt: To manage phosphate elevation, phosphate binders were permitted. Avoid concomitant use with agents that can alter serum phosphate levels before the initial dose increase period based on serum phosphate levels.

[3] = FGFR fusions (excluding mutations), 6 mg QD
[4] = FGFR fusions (excluding mutations), 8 mg QD
[5] = FGFR fusions (excluding mutations), 10 mg 7 on/7 off
[6] = FGFR fusions (excluding mutations), Total
[7] = FGFR mutations (excluding fusions), 6 mg QD
[8] = FGFR mutations (excluding fusions), 8 mg QD
[9] = FGFR mutations (excluding fusions), 10 mg 7 on/7 off
[10] = FGFR mutations (excluding fusions), Total
[11] = FGFR mutations and fusions, 6 mg QD
[12] = FGFR mutations and fusions, 10 mg 7 on/7 off
[13] = FGFR mutations and fusions, Total

## COc1cc(OC)cc(N(CCNC(C)C)c2ccc3ncc(-c4cnn(C)c4)nc3c2)c1 [erdafitinib, N-(3,5-dimethoxy-phenyl)-N′-(1-methylethyl)-N-[3-(1-methyl-1H-pyrazol-4-yl)quinoxalin-6-yl]ethane-1,2-diamine]
[1]; [3]
  6-month overall survival rate (95% CI): 0.80 (0.41, 0.95)
  12-month overall survival rate (95% CI): 0.46 (0.14, 0.73)
  18-month overall survival rate (95% CI): 0.46 (0.14, 0.73)
  Overall survival, Median (95% CI): 9.33 (0.46, NE) months
  Overall survival, Q1: 7.92 months
  Overall survival, Q3: 18.96 months
[1]; [4]
  6-month overall survival rate (95% CI): 0.77 (0.54, 0.90)
  12-month overall survival rate (95% CI): 0.46 (0.24, 0.66)
  Overall survival, Median (95% CI): 10.32 (6.05, NE) months
  Overall survival, Q1: 6.05 months
  Overall survival, Q3: 14.03 months
[1]; [5]
  6-month overall survival rate (95% CI): 1.00 (1.00, 1.00)
  12-month overall survival rate (95% CI): 0.50 (0.01, 0.91)
  18-month overall survival rate (95% CI): 0 (NE, NE)
  24-month overall survival rate (95% CI): 0 (NE, NE)
  Overall survival, Median (95% CI): 10.37 (7.72, 13.01) months
  Overall survival, Q1: 7.72 months
  Overall survival, Q3: 13.01 months
[1]; [6]
  6-month overall survival rate (95% CI): 0.80 (0.62, 0.90)
  12-month overall survival rate (95% CI): 0.46 (0.28, 0.62)
  18-month overall survival rate (95% CI): 0.31 (0.12, 0.52)
  Overall survival, Median (95% CI): 9.33 (7.72, 18.96) months
  Overall survival, Q1: 6.97 months
  Overall survival, Q3: 18.96 months
[1]; [7]
  6-month overall survival rate (95% CI): 0.68 (0.54, 0.79)
  12-month overall survival rate (95% CI): 0.30 (0.18, 0.43)
  18-month overall survival rate (95% CI): 0.21 (0.11, 0.33)
  Overall survival, Median (95% CI): 8.31 (6.41, 9.63) months
  Overall survival, Q1: 5.13 months
  Overall survival, Q3: 14.82 months
[1]; [8]
  6-month overall survival rate (95% CI): 0.74 (0.61, 0.83)
  12-month overall survival rate (95% CI): 0.54 (0.38, 0.68)
  Overall survival, Median (95% CI): 12.02 (8.64, NE) months
  Overall survival, Q1: 5.98, NE months
[1]; [9]
  6-month overall survival rate (95% CI): 0.70 (0.47, 0.84)
  12-month overall survival rate (95% CI): 0.31 (0.14, 0.50)
  18-month overall survival rate (95% CI): 0.26 (0.11, 0.45)
  24-month overall survival rate (95% CI): 0.22 (0.08, 0.40)
  Overall survival, Median (95% CI): 7.39 (5.78, 10.71) months
  Overall survival, Q1: 5.55 months
  Overall survival, Q3: 18.76 months
[1]; [10]
  6-month overall survival rate (95% CI): 0.71 (0.63, 0.78)
  12-month overall survival rate (95% CI): 0.39 (0.30, 0.48)
  18-month overall survival rate (95% CI): 0.29 (0.20, 0.39)
  24-month overall survival rate (95% CI): 0.24 (0.15, 0.35)
  Overall survival, Median (95% CI): 9.10 (7.46, 11.86) months
  Overall survival, Q1: 5.49 months
  Overall survival, Q3: 18.76 months
[1]; [11]
  6-month overall survival rate (95% CI): 0.75 (0.13, 0.96)
  12-month overall survival rate (95% CI): 0.75 (0.13, 0.96)
  18-month overall survival rate (95% CI): 0.38 (0.01, 0.81)
  Overall survival, Median (95% CI): 12.65 (0.39, NE) months
  Overall survival, Q1: 6.52, NE months
[1]; [12]
  6-month overall survival rate (95% CI): 0.67 (0.05, 0.95)
  12-month overall survival rate (95% CI): 0 (NE, NE)
  18-month overall survival rate (95% CI): 0 (NE, NE)
  24-month overall survival rate (95% CI): 0 (NE, NE)
  Overall survival, Median (95% CI): 6.21 (3.98, 9.10) months
  Overall survival, Q1: 3.98 months
  Overall survival, Q3: 9.10 months
[1]; [13]
  6-month overall survival rate (95% CI): 0.71 (0.26, 0.92)
  12-month overall survival rate (95% CI): 0.43 (0.10, 0.73)
  18-month overall survival rate (95% CI): 0.21 (0.01, 0.59)
  Overall survival, Median (95% CI): 9.10 (0.39, NE) months
  Overall survival, Q1: 3.98 months
  Overall survival, Q3: 12.65 months
[1]; Regimen 1, 10 mg intermittent
  Median overall survival (95% CI): 7.5 (6.0 to 10.7) months
  overall survival rate at 12 months: 31%
[1]; Regimen 2, 6 mg continuous
  Median overall survival (95% CI): 8.6 (6.5 to 9.7) months
  overall survival rate at 12 months: 33%
[1]; Regimen 3, 8 mg continuous
  Survival rate at 12 months: 55%
  median overall survival: 13.8 months
[2]
  effect of food on pharmacokinetics: No clinically meaningful differences
Serum phosphate
  effect on serum phosphate level: increased serum phosphate level
